Values joined by “and” are separate entries in the source; they are usually repeats but may differ in a detail not shown here. Equal values may be shown once. Active and inactive are the calls of the source. The calls were made as follows: active = viability on the fitted dose curve at most 10% of control; inactive = the rest.
Tested on: 947758-054-R-J2-PDC spheroid growth, percent test/control
Experiment: Anticancer human tumor 947758-054-R-J2-PDC patient-derived colon adenocarcinoma cell line growth inhibition [CLK]
Conditions: spheroids with HUVEC and MSC; for viability, T/C: stronger effect = lower value
Outline: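 Multi-cell-type spheroids combined patient-derived tumor cells with HUVEC endothelial cells and human mesenchymal stem cells. Paired agents were dosed in half-log steps down from about clinical Cmax, or from 10 microM where Cmax was unknown.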

[1] = curve of first compound, second compound 0.0316 µM
[2] = curve of first compound, second compound 0.1 µM
[3] = curve of first compound, second compound 0.316 µM
[4] = curve of first compound, second compound 1 µM
[5] = curve of first compound, second compound 3.16 µM
[6] = curve of first compound, second compound 10 µM
[7] = second compound 0.0316 µM, first compound 0.0316 µM
[8] = second compound 0.0316 µM, first compound 0.1 µM
[9] = second compound 0.0316 µM, first compound 0.316 µM
[10] = second compound 0.0316 µM, first compound 1 µM
[11] = second compound 0.0316 µM, first compound 3.16 µM
[12] = second compound 0.0316 µM, first compound 10 µM
[13] = second compound 0.1 µM, first compound 0.0316 µM
[14] = second compound 0.1 µM, first compound 0.1 µM
[15] = second compound 0.1 µM, first compound 0.316 µM
[16] = second compound 0.1 µM, first compound 1 µM
[17] = second compound 0.1 µM, first compound 3.16 µM
[18] = second compound 0.1 µM, first compound 10 µM
[19] = second compound 0.316 µM, first compound 0.0316 µM
[20] = second compound 0.316 µM, first compound 0.1 µM
[21] = second compound 0.316 µM, first compound 0.316 µM
[22] = second compound 0.316 µM, first compound 1 µM
[23] = second compound 0.316 µM, first compound 3.16 µM
[24] = second compound 0.316 µM, first compound 10 µM
[25] = second compound 1 µM, first compound 0.0316 µM
[26] = second compound 1 µM, first compound 0.1 µM
[27] = second compound 1 µM, first compound 0.316 µM
[28] = second compound 1 µM, first compound 1 µM
[29] = second compound 1 µM, first compound 3.16 µM
[30] = second compound 1 µM, first compound 10 µM
[31] = second compound 3.16 µM, first compound 0.0316 µM
[32] = second compound 3.16 µM, first compound 0.1 µM
[33] = second compound 3.16 µM, first compound 0.316 µM
[34] = second compound 3.16 µM, first compound 1 µM
[35] = second compound 3.16 µM, first compound 3.16 µM
[36] = second compound 3.16 µM, first compound 10 µM
[37] = second compound 10 µM, first compound 0.0316 µM
[38] = second compound 10 µM, first compound 0.1 µM
[39] = second compound 10 µM, first compound 0.316 µM
[40] = second compound 10 µM, first compound 1 µM
[41] = second compound 10 µM, first compound 3.16 µM
[42] = second compound 10 µM, first compound 10 µM
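Also: spheroids exposed to compounds for one week before readout.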
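For viability, T/C in this document: 100% = DMSO vehicle control wells.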

NC(=O)C(=Cn1cnc(-c2cc(C(F)(F)F)cc(C(F)(F)F)c2)n1)c1cncnc1
active: viability, T/C (compound 0.949 µM) 10.5% and 10% | viability, T/C (compound 3 µM) 2.27% and 3.82%
inactive: viability, T/C (compound 0.00949 µM) 101% and 94.5% | viability, T/C (compound 0.03 µM) 91% and 92.6% | viability, T/C (compound 0.0949 µM) 59.9% and 62.1% | viability, T/C (compound 0.3 µM) 28.5% and 28.9%
140 nM and 149 nM: IC50 (curve of compound)

CCCS(=O)(=O)Nc1ccc(F)c(C(=O)c2c[nH]c3ncc(-c4ccc(Cl)cc4)cc23)c1F + CNC(=O)c1ccc(Nc2nc(OC3CCCC3)c3c(-c4ccc5nc(C)oc5c4)c[nH]c3n2)c(OC)c1
active: viability, T/C [29] 14.4% | viability, T/C [30] 4.09% | viability, T/C [35] 10% | viability, T/C [36] 4.82% | viability, T/C [41] 9.07% | viability, T/C [42] 4.26%
inactive: viability, T/C [7] 39.4% | viability, T/C [8] 44.1% | viability, T/C [9] 31.6% | viability, T/C [10] 53.5% | viability, T/C [11] 47.7% | viability, T/C [12] 31.5% | viability, T/C [13] 45.5% | viability, T/C [14] 37.9% | viability, T/C [15] 29% | viability, T/C [16] 28.2% | viability, T/C [17] 24.6% | viability, T/C [18] 17.2% | viability, T/C [19] 50.4% | viability, T/C [20] 33.6% | viability, T/C [21] 18.8% | viability, T/C [22] 22.5% | viability, T/C [23] 23.9% | viability, T/C [24] 11.2% | viability, T/C [25] 37.6% | viability, T/C [26] 25.5% | viability, T/C [27] 16.9% | viability, T/C [28] 13.6% | viability, T/C [31] 30.2% | viability, T/C [32] 20.7% | viability, T/C [33] 15.7% | viability, T/C [34] 13.1% | viability, T/C [37] 24.2% | viability, T/C [38] 20.9% | viability, T/C [39] 14.4% | viability, T/C [40] 13.6%
< 31.6 nM: IC50 [1] | IC50 [2] | IC50 [4] | IC50 [5] | IC50 [6]
32.6 nM: IC50 [3]

C=CC(=O)N1CCN(c2nc(=O)n(-c3c(C)ccnc3C(C)C)c3nc(-c4c(O)cccc4F)c(F)cc23)C(C)C1 (stereo not given)
inactive: viability, T/C (compound 0.0316 µM) 115% and 77.6% | viability, T/C (compound 0.1 µM) 77.8% and 82.6% | viability, T/C (compound 0.316 µM) 106% and 101% | viability, T/C (compound 1 µM) 75.6% and 75% | viability, T/C (compound 3.16 µM) 81.2% and 90.3% | viability, T/C (compound 10 µM) 94.7% and 77.3%
> 10000 nM: IC50 (curve of compound)

O=C(c1cc(Cc2n[nH]c(=O)c3ccccc23)ccc1F)N1CCN(C(=O)C2CC2)CC1 + CNC(=O)c1ccc(Nc2nc(OC3CCCC3)c3c(-c4ccc5nc(C)oc5c4)c[nH]c3n2)c(OC)c1
> 10000 nM: IC50 [1] | IC50 [2] | IC50 [3] | IC50 [4]
< 31.6 nM: IC50 [6]
156 nM: IC50 [5]
inactive: viability, T/C [7] 101% | viability, T/C [8] 97.3% | viability, T/C [9] 96.3% | viability, T/C [10] 93.5% | viability, T/C [11] 113% | viability, T/C [12] 80.9% | viability, T/C [13] 110% | viability, T/C [14] 102% | viability, T/C [15] 100% | viability, T/C [16] 99.4% | viability, T/C [17] 110% | viability, T/C [18] 73.7% | viability, T/C [19] 94.3% | viability, T/C [20] 94.8% | viability, T/C [21] 64.5% | viability, T/C [22] 71.5% | viability, T/C [23] 103% | viability, T/C [24] 65% | viability, T/C [25] 63.2% | viability, T/C [26] 53% | viability, T/C [27] 53.7% | viability, T/C [28] 64.1% | viability, T/C [29] 69.2% | viability, T/C [30] 35.8% | viability, T/C [31] 56.2% | viability, T/C [32] 43.6% | viability, T/C [33] 45.4% | viability, T/C [34] 52.7% | viability, T/C [35] 54% | viability, T/C [36] 37.4% | viability, T/C [37] 47.9% | viability, T/C [38] 40.9% | viability, T/C [39] 41.5% | viability, T/C [40] 34.4% | viability, T/C [41] 35.2% | viability, T/C [42] 35.1%

CC1COCCN1c1cc(C2(S(C)(=N)=O)CC2)nc(-c2ccnc3[nH]ccc23)n1 (stereo not given)
7430 nM and 6370 nM: IC50 (curve of compound)
inactive: viability, T/C (compound 0.0316 µM) 110% and 128% | viability, T/C (compound 0.1 µM) 92.4% and 100% | viability, T/C (compound 0.316 µM) 79.1% and 102% | viability, T/C (compound 1 µM) 111% and 108% | viability, T/C (compound 3.16 µM) 202% | outcome (compound 3.16 µM) | viability, T/C (compound 10 µM) 26.1% and 28.4%

C=C(F)C(=O)N1CCN(c2nc(OCC3CCCN3C)nc3c2CCN(c2cccc4cccc(Cl)c24)C3)CC1CC#N (stereo not given) + CN1CCN(c2cc(C(=O)Nc3cc4cc(-c5cnn(C)c5)ccc4cn3)ccn2)CC1
7050 nM: IC50 [2]
active: viability, T/C [18] 4.69% | viability, T/C [19] 4.5% | viability, T/C [20] 5.53% | viability, T/C [21] 5.34% | viability, T/C [22] 6.82% | viability, T/C [23] 8.16% | viability, T/C [24] 1.5% | viability, T/C [25] 0.18% | viability, T/C [26] 1.06% | viability, T/C [27] 0.17% | viability, T/C [28] 2.25% | viability, T/C [29] 0.12% | viability, T/C [30] 0.96% | viability, T/C [31] 1.29% | viability, T/C [32] 0.25% | viability, T/C [33] 0.21% | viability, T/C [34] 0.24% | viability, T/C [35] 0.14% | viability, T/C [36] 0.12% | viability, T/C [37] 1.57% | viability, T/C [38] 1.69% | viability, T/C [39] 0.29% | viability, T/C [40] 0.31% | viability, T/C [41] 1.29% | viability, T/C [42] 1.41%
6610 nM: IC50 [1]
inactive: viability, T/C [7] 122% | viability, T/C [8] 116% | viability, T/C [9] 109% | viability, T/C [10] 107% | viability, T/C [11] 146% | viability, T/C [12] 10.6% | viability, T/C [13] 149% | viability, T/C [14] 201% | viability, T/C [15] 181% | viability, T/C [16] 220% | viability, T/C [17] 154%
< 31.6 nM: IC50 [3] | IC50 [4] | IC50 [5] | IC50 [6]

O=c1[nH]cc(F)c(=O)[nH]1
1290 nM and 1430 nM: IC50 (curve of compound)
inactive: viability, T/C (compound 0.0316 µM) 91.8% and 91.2% | viability, T/C (compound 0.1 µM) 103% and 99% | viability, T/C (compound 0.316 µM) 129% and 86.8% | viability, T/C (compound 1 µM) 54.9% and 55.9% | viability, T/C (compound 3.16 µM) 34.4% and 37.1% | viability, T/C (compound 10 µM) 31.2% and 36.5%
